The source of these data is article PMC9050848, “Carbamoyl-N-aryl-imine-urea: a new framework to obtain a putative leishmanicidal drug-candidate” (RSC Advances, 2020).

Data set [1] relates to L. amazonensis intracellular amastigotes. Put plainly: Leishmanicidal activity against intracellular amastigote forms of L. amazonensis in J774.A1 macrophages. Type of data set: cell-based. The procedure:
Considering that L. amazonensis is one of the causative species of cutaneous leishmaniasis in Brazil,[20] we have investigated the leishmanicidal effect of compounds 9a–e and 10a–e against L. amazonensis amastigotes forms. Initially, all compounds were evaluated at 30 μM. […] Then, they were selected to determine their IC50 value for intracellular amastigote forms of L. amazonensis.
(§1) Promastigotes of L. amazonensis (MHOM/BR/77/LTB0016) were obtained from Dr Eduardo Caio Torres dos Santos at Oswaldo Cruz Institute – Fiocruz. Promastigotes of L. braziliensis (MHOM/BR/01/BA788) were obtained from Dr Valéria de Matos Borges at Gonçalo Moniz Research Center – Fiocruz. The parasites were maintained in vitro in Schneider's medium, supplemented with 10% FBS and 2% human urine at 27 °C in BOD incubator.
(§2) Initially, compounds 9a–e and 10a–e were evaluated at screening concentration of 30 μM against L. amazonensis, using DMSO 0.03% as vehicle control, since this was the DMSO concentration (vehicle) remaining in each well with the tested compounds. […] Vehicle control used was DMSO 0.1%, since this was the concentration of DMSO (vehicle) existing in each well with the tested substances in the highest concentration used.
(§3) To assess the activity of the test derivatives against the amastigote stage of L. amazonensis and L. braziliensis the model of infection in coverglass was realized.[31] The murine macrophages (J774.A1 cell line) were prepared in 24-well cell culture plate (flat bottom, clear, Corning) at 2 × 10^5 adherent cells per well, infected with 2 × 10^6 promastigotes in glass coverslips placed inside 1 mL medium culture. The cultures were cultured or not with the test derivatives or reference drugs, and kept for 24 h at 37 °C, 5% CO2. After 24 h of incubation, the coverslips were washed, stained with Giemsa–May–Grünwald, and intracellular amastigotes were counted in 100 macrophages, using an optical microscope, on the objective of 100×. Thus, during the counting of 100 macrophages, the amount of amastigotes present within these defence cells was also determined. Data obtained from in vitro experiments were expressed as the mean ± S.E.M. of duplicate cultures of representative assays. Statistical differences between the treated and the control groups were evaluated by ANOVA and Dunnett hoc tests. Differences with a p value < 0.05 or lower were considered significant.

For data set [2], the system named is L. braziliensis intracellular amastigotes. Put plainly: Leishmanicidal activity against intracellular amastigote forms of L. braziliensis in J774.A1 macrophages. Type of data set: cell-based. The note with it: Leishmania braziliensis.
Source text: Further, the leishmanicidal activity against intracellular amastigotes forms of L. braziliensis were also investigated (Table 2).
as §1, §2, §3

A short description of data set [3]: Plasma stability (UPLC-MS/MS recovery). The format is in vitro ADME. The note with it: 4 hours, 37 °C, rat plasma diluted 1:1 with PBS pH 7.4. The procedure:
To investigate the potential plasma instability of the carbamoyl-N-arylimine-urea subunit, designed as a new peptide mimetic framework, compound 10e (LASSBio-1736) was selected to investigate its plasma stability,[21,22] previously to the evaluation of its in vivo leishmanicidal effect. Quantitation of 10e (LASSBio-1736), benzocaine standard (positive control; it means a substrate drug for plasma hydrolysis) and ketoconazole (internal standard) was determined by UPLC-MS/MS, after incubation of the compounds at 0, 30, 60, 120 and 240 min with rat plasma, and measuring the peak areas in three different experiments.
For analysis of plasma stability, 5 μL (250 ng mL^−1) of a concentrated solution of 10e (LASSBio-1736) or the positive control benzocaine (stock concentration = 10 000 ng mL^−1 solubilized in DMSO) was added in 195 μL of rat plasma solution (1 : 1) diluted with PBS (pH 7.4). […] The supernatant (400 μL) were placed in 2 mL vials, and analyzed by UPLC-MS/MS. […]
Detection in single reaction monitoring (SRM) mode was used for determination of the LASSBio-1736 (10e) m/z 419.1 → 205.0, benzocaine m/z 166.1 → 137.9 and ketoconazole (IS) 532.1 → 490.3, with a tolerance of mass deviation of 6 ppm, operating in positive ionization mode. The data were acquired using TraceFinder 3.2. software (Thermo Fisher Scientific, Waltham, USA), and analyzed using GraphPad Prism 5 program.

Setting [4] is: L. amazonensis amastigotes, ratio of IC50 values.

For `O=C(N/N=C/c1ccc(C(F)(F)F)cc1)NNC(=O)c1ccc(Cl)cc1Cl` [LASSBio-1736 (10e), 2,4-dichloro-phenylcarbamoyl-N-4-trifluoromethylphenylimine-urea], the “Times less potent than miltefosine” value in data set [1] (setting [4]) is about 4.0 times. The “Times less potent than pentamidine” value in data set [1] (setting [4]) was “about 2.5 times”. In data set [1] (L. amazonensis, screening concentration 30 μM), the “Effect on the number of intracellular amastigotes” value is “decreased the number of intracellular amastigotes”. The IC50 was 84 ± 0.3 µM in data set [1] (Leishmania amazonensis, J774.A1, 24 h, read-out: IC50 (concentration required to give 50% death of parasites)) and 5.3 ± 2.6 µM in data set [2] (J774.A1, 24 h, read-out: IC50 (concentration required to give 50% death of parasites)). For the same compound, the Emax came to 57.6 ± 0.2% in data set [1] (Leishmania amazonensis, J774.A1, L. amazonensis intracellular amastigotes, maximum toxicity vs 0.1% DMSO group, read-out: Maximum effect (% ± S.E.M.)) and 57.2 ± 5.2% in data set [2] (J774.A1, L. braziliensis intracellular amastigotes, maximum toxicity vs 0.1% DMSO group, read-out: Maximum effect (% ± S.E.M.)). For the same compound, the “Compound recovery after incubation with rat plasma” value in data set [3] is given as “completely recovered”.
